Source: ChEMBL document CHEMBL1135459, “Novel class of potent 4-arylalkyl substituted 3-isoxazolol GABA(A) antagonists: synthesis, pharmacology, and molecular modeling” (J Med Chem, 2002)

How the values were obtained:
Mus musculus [1] = species on record: Mus musculus; assay: Electrophysiology using Whole-cell patch-clamp recordings in mouse embryos; type: functional, organism-based
[2] = target: GABA-A receptor; anion channel; assay: Affinity for GABA-A receptor alpha by inhibiting binding of [3H]muscimol to rat brain synaptosomes; type: subcellular
[3] = target: Gamma-aminobutyric acid type B receptor subunit 1 (Rattus norvegicus, UniProt Q9Z0U4); assay: Affinity for GABA-B receptor by inhibiting GABA uptake into rat brain synaptosomes; type: subcellular
Sequence of Gamma-aminobutyric acid type B receptor subunit 1 (Q9Z0U4 whole entry): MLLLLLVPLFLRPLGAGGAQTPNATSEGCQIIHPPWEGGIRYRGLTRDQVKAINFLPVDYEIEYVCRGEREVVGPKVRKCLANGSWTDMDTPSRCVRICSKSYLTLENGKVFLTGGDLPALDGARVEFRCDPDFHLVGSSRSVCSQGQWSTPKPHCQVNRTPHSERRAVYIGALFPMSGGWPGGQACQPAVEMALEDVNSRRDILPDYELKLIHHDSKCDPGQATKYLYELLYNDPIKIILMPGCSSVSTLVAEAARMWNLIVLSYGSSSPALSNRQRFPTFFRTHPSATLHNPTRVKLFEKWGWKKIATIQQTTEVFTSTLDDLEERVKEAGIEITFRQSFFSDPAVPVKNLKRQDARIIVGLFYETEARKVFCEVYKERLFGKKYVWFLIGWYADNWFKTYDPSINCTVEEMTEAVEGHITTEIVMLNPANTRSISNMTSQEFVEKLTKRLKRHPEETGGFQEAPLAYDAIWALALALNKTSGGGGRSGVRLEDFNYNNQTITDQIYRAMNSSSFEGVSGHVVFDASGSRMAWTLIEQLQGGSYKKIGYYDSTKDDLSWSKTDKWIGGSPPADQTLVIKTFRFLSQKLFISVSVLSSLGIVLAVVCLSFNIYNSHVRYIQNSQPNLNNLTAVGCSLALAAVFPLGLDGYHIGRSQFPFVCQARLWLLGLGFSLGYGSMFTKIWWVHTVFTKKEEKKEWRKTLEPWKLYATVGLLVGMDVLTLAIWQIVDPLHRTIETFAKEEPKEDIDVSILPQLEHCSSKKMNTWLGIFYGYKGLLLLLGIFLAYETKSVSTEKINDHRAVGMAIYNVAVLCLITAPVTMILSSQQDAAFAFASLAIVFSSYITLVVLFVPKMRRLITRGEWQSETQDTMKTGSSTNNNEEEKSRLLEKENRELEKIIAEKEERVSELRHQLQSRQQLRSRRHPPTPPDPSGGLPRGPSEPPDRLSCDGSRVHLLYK

Mus musculus [4] = assay: Convulsant effect in mice after intracerebroventricular (icv) administration; type: functional; conditions: central
Mus musculus [5] = assay: Convulsant effect in mice after subcutaneous (sc) administration; type: functional

Question: How did the IC50 (Mus musculus [1]) turn out when `Oc1noc(C2CCNCC2)c1Cc1cccc2ccccc12` was run?
Answer: 480 nM

Question: And the Ki [2]?
Answer: 100 nM

Question: And the IC50 [3]?
Answer: > 10000 nM

Question: Which results are given for `Oc1noc(C2CCNCC2)c1CCc1ccccc1`?
Answer: IC50 (Mus musculus [1]): 4100 nM; Ki [2]: 5000 nM; IC50 [3]: > 10000 nM

Question: How did the IC50 (Mus musculus [1]) turn out when `CCCCCCc1c(O)noc1C1CCNCC1` was run?
Answer: 1100 nM

Question: And the Ki [2]?
Answer: 4500 nM

Question: What about the IC50 [3] of the same molecule?
Answer: > 100000 nM

Question: What does the source list for `Oc1noc(C2CCNCC2)c1Cc1ccc2ccccc2c1`?
Answer: IC50 (Mus musculus [1]): 370 nM; ED50 (Mus musculus [4]): 0.024 µmol/kg; ED50 (Mus musculus [5]): > 51 µmol/kg; IC50 [3]: > 10000 nM

Question: Which IC50 (Mus musculus [1]) does the source give for `CCc1c(O)noc1C1CCNCC1` here?
Answer: 10300 nM

Question: What about the IC50 [3] of the same molecule?
Answer: > 100000 nM

Question: `Oc1noc(C2CCNCC2)c1CC1CCCCC1` was tested. Which IC50 (Mus musculus [1]) did it give?
Answer: 1100 nM

Question: What about the Ki [2] of the same molecule?
Answer: 4900 nM

Question: And the IC50 [3]?
Answer: > 100000 nM

Question: What does the source list for `Oc1noc(C2CCNCC2)c1Cc1c2ccccc2cc2ccccc12`?
Answer: IC50 (Mus musculus [1]): 1300 nM; IC50 [3]: > 10000 nM

Question: With `Oc1noc(C2CCNCC2)c1Cc1ccccc1` as the molecule, how does the IC50 (Mus musculus [1]) read?
Answer: 4000 nM

Question: What about the IC50 [3] of the same molecule?
Answer: > 100000 nM

Question: `Oc1noc(C2CCNCC2)c1CCc1ccc2ccccc2c1` was tested. Which IC50 (Mus musculus [1]) did it give?
Answer: 890 nM

Question: What about the IC50 [3] of the same molecule?
Answer: > 10000 nM

Question: What does the source list for `CCCCc1c(O)noc1C1CCNCC1`?
Answer: IC50 (Mus musculus [1]): 3000 nM; IC50 [3]: > 100000 nM

Question: With `Oc1noc(C2CCNCC2)c1CCC(c1ccccc1)c1ccccc1` as the molecule, how does the IC50 (Mus musculus [1]) read?
Answer: 20 nM

Question: And the ED50 (Mus musculus [4])?
Answer: 0.21 µmol/kg

Question: And the ED50 (Mus musculus [5])?
Answer: > 45 µmol/kg

Question: What about the Ki [2] of the same molecule?
Answer: 68 nM

Question: And the IC50 [3]?
Answer: > 10000 nM

Question: For `CC1(c2cc(O)no2)CCNCC1`, which Ki [2] is on record?
Answer: 37000 nM

Question: And the IC50 [3]?
Answer: > 100000 nM

Question: Which results are given for `CCCc1c(O)noc1C1CCNCC1`?
Answer: IC50 (Mus musculus [1]): 4600 nM; Ki [2]: 6600 nM; IC50 [3]: > 100000 nM

Question: How did the IC50 (Mus musculus [1]) turn out when `Cc1c(O)noc1C1CCNCC1` was run?
Answer: 26000 nM

Question: And the IC50 [3]?
Answer: > 100000 nM

Question: Which results are given for `Oc1noc(C2CCNCC2)c1C(c1ccccc1)c1ccccc1`?
Answer: IC50 (Mus musculus [1]): 780 nM; Ki [2]: 960 nM; IC50 [3]: > 10000 nM

Question: Which IC50 (Mus musculus [1]) does the source give for `Oc1noc(C2CCNCC2)c1CCc1cccc2ccccc12` here?
Answer: 1500 nM

Question: And the Ki [2]?
Answer: 1700 nM

Question: And the IC50 [3]?
Answer: > 10000 nM

Question: With `Oc1noc(C2CCNCC2)c1CCCC(c1ccccc1)c1ccccc1` as the molecule, how does the IC50 (Mus musculus [1]) read?
Answer: 50 nM

Question: What about the Ki [2] of the same molecule?
Answer: 700 nM

Question: And the IC50 [3]?
Answer: > 100000 nM

Question: How did the IC50 (Mus musculus [1]) turn out when `Oc1noc(C2CCNCC2)c1CCCc1ccccc1` was run?
Answer: 530 nM

Question: What about the Ki [2] of the same molecule?
Answer: 1100 nM

Question: And the IC50 [3]?
Answer: > 100000 nM

Question: How did the IC50 (Mus musculus [1]) turn out when `Oc1noc(C2CCNCC2)c1CC(c1ccccc1)c1ccccc1` was run?
Answer: 810 nM

Question: And the Ki [2]?
Answer: 360 nM

Question: What about the IC50 [3] of the same molecule?
Answer: > 100000 nM

Question: How did the IC50 (Mus musculus [1]) turn out when `CCCCCCCCc1c(O)noc1C1CCNCC1` was run?
Answer: 440 nM

Question: And the Ki [2]?
Answer: 1800 nM

Question: What about the IC50 [3] of the same molecule?
Answer: > 100000 nM

Question: `Oc1noc(C2CCNCC2)c1Cc1ccc(-c2ccccc2)cc1` was tested. Which IC50 (Mus musculus [1]) did it give?
Answer: 710 nM

Question: And the Ki [2]?
Answer: 400 nM

Question: What about the IC50 [3] of the same molecule?
Answer: > 10000 nM
